Measured values from patent publication US20080319043A1, “3,6-Disubstituted Azabicyclo (3.1.0) Hexane Derivatives as Muscarinic Receptor Antagonists” (priority 2005, published 2008).

Experiments:
isolated rat bladder = assay: tissue or blood; details: read-out: pKb (converted)

| melting point | SMILES | Kb (isolated rat bladder) |
| --- | --- | --- |
| 70 to 75 °C | O=C(NCC1C2CNCC21)C(O)(c1ccccc1)c1cccs1 (centres unmarked) [Compound No. 18, N-(3-Azabicyclo[3.1.0]hex-6-ylmethyl)-2-hydroxy-2-phenyl-2-(2-thienyl)acetamide] |  |
| 105 to 108 °C | Cc1cccc(C(O)(C(=O)OCC2C3CNCC32)c2cccc(C)c2)c1 (centres unmarked) [Compound No. 27, 3-Azabicyclo[3.1.0]hex-6-ylmethyl hydroxy[bis(3-methylphenyl)]acetate] |  |
|  | Nc1cccc(CN2CC3C(CNC(=O)C(O)(c4ccccc4)C4CCCC4)C3C2)n1 (centres unmarked) [Compound No. 51, N-({3-[(6-Aminopyridin-2-yl)methyl]-3-azabicyclo[3.1.0]hex-6-yl}methyl)-2-cyclopentyl-2-hydroxy-2-phenylacetamide] | 0.00251 to 0.0398 µM |
|  | CC1C2C(CNC(=O)C(O)(c3ccccc3)C3CCCC3)C2CN1Cc1ccccc1 (centres unmarked) [Compound No. 60, N-[(3-Benzyl-2-methyl-3-azabicyclo[3.1.0]hex-6-yl)methyl]-2-cyclopentyl-2-hydroxy-2-phenylacetamide] | 0.00251 to 0.0398 µM |
|  | O=C(NCC1C2CN(Cc3ccc4c(c3)OCO4)CC12)C(O)(c1ccccc1)C1CCCCC1 (centres unmarked) [Compound No. 80, N-{[3-(1,3-Benzodioxol-5-ylmethyl)-3-azabicyclo[3.1.0]hex-6-yl]methyl}-2-cyclohexyl-2-hydroxy-2-phenylacetamide] | 0.00251 to 0.0398 µM |
